# Columns and labels:
# [1] = test system: P. falciparum 3D7 trophozoites; assay: Metabolomic fingerprint profiling LC-MS; type: cell-based, Plasmodium falciparum; parameters: UDP-D-glucose / ADP-D-glucose: unit not given here; conditions: for Acetyllysine / N-acetyl-L-ornithine / N-carbamoyl-L-aspartate / NADPH / dAMP / dCMP / dTDP / dTMP / dTTP / dihydroorotate / orotate / DLH / DLS/SDL/SID / PD / PEE / PVNF / 3-phosphoglycerate / ADP-D-glucose / ATP / CDP / D-sedoheptulose-1/7-phosphate / FAD / GMP / NAD+ / NADP+ / Octoluse Bisphosphate / Pyroglutamic acid / UDP-D-glucose / UDP-D-glucuronate / UDP-N-acetyl-glucosamine / UDP / UMP / UTP / a-ketoglutarate / citrate/isocitrate / cytidine / dATP / dGMP/AMP / fumarate / glucose-1/6-phosphate / glycerate / guanine / guanosine / hypoxanthine / indole / inosine / nicotinate / ornithine / phosphoenolpyruvate / pyruvate / ribose-phosphate / sarcosine/alanine / sn-glycerol-3-phosphate / succinate/methylmalonic acid / uridine / xanthosine: S2 Table Metabolomics; for Acetyllysine: metabolite Acetyllysine; for N-acetyl-L-ornithine: metabolite N-acetyl-L-ornithine; for N-carbamoyl-L-aspartate: metabolite N-carbamoyl-L-aspartate; for NADPH: metabolite NADPH; for dAMP: metabolite dAMP; for dCMP: metabolite dCMP; for dTDP: metabolite dTDP; for dTMP: metabolite dTMP; for dTTP: metabolite dTTP; for dihydroorotate: metabolite dihydroorotate; for orotate: metabolite orotate; for DLH: peptide DLH; for DLS/SDL/SID: peptide DLS/SDL/SID; for PD: peptide PD; for PEE: peptide PEE; for PVNF: peptide PVNF; for 3-phosphoglycerate: metabolite 3-phosphoglycerate; for ADP-D-glucose: metabolite ADP-D-glucose; for ATP: metabolite ATP; for CDP: metabolite CDP; for CDP / D-sedoheptulose-1/7-phosphate / GMP / Octoluse Bisphosphate / UDP / UMP / UTP / citrate/isocitrate / dGMP/AMP / fumarate / glucose-1/6-phosphate / glycerate / guanine / guanosine / inosine / pyruvate / sarcosine/alanine / succinate/methylmalonic acid / uridine / xanthosine: change in metabolite level after compound treatment; for D-sedoheptulose-1/7-phosphate: metabolite D-sedoheptulose-1/7-phosphate; for FAD: metabolite FAD; for GMP: metabolite GMP; for NAD+: metabolite NAD+; for NADP+: metabolite NADP+; for Octoluse Bisphosphate: metabolite Octoluse Bisphosphate; for Pyroglutamic acid: metabolite Pyroglutamic acid; for UDP-D-glucose: metabolite UDP-D-glucose; for UDP-D-glucuronate: metabolite UDP-D-glucuronate; for UDP-N-acetyl-glucosamine: metabolite UDP-N-acetyl-glucosamine; for UDP: metabolite UDP; for UMP: metabolite UMP; for UTP: metabolite UTP; for a-ketoglutarate: metabolite a-ketoglutarate; for citrate/isocitrate: metabolite citrate/isocitrate; for cytidine: metabolite cytidine; for dATP: metabolite dATP; for dGMP/AMP: metabolite dGMP/AMP; for fumarate: metabolite fumarate; for glucose-1/6-phosphate: metabolite glucose-1/6-phosphate; for glycerate: metabolite glycerate; for guanine: metabolite guanine; for guanosine: metabolite guanosine; for hypoxanthine: metabolite hypoxanthine; for indole: metabolite indole; for inosine: metabolite inosine; for 2_3-Diphosphoglyceric acid / 4-phosphopantothenate / 6-phospho-D-gluconate / FMN / IMP / Pyrophosphate / Sedoheptoluse bisphosphate / cyclic-AMP / glutathione disulfide / lactate / myo-inositol: metabolite level change after treatment; for nicotinate: metabolite nicotinate; for ornithine: metabolite ornithine; for phosphoenolpyruvate: metabolite phosphoenolpyruvate; for pyruvate: metabolite pyruvate; for ribose-phosphate: metabolite ribose-phosphate; for sarcosine/alanine: metabolite sarcosine/alanine; for sn-glycerol-3-phosphate: metabolite sn-glycerol-3-phosphate; for succinate/methylmalonic acid: metabolite succinate/methylmalonic acid; for uridine: metabolite uridine; for xanthosine: metabolite xanthosine
# [2] = test system: P. falciparum; assay: EC50 listed in S2 Table Metabolomics (used to set the concentration tested); type: cell-based; conditions: Plasmodium falciparum; EC50 used for Factor_XEC50 in metabolomics; read-out: EC50_nM
compound,measurement,setting,value
Cc1cccc(Nc2nc(N)c3ccccc3n2)c1 [MMV019110],Acetyllysine,[1],-0.7861
same,N-acetyl-L-ornithine,[1],-0.3066
same,N-carbamoyl-L-aspartate,[1],0.8718
same,NADPH,[1],1.0636
same,dAMP,[1],0.1705
same,dCMP,[1],-1.068
same,dTDP,[1],-0.2853
same,dTMP,[1],-0.4806
same,dTTP,[1],-0.142
same,dihydroorotate,[1],1.069
same,orotate,[1],-0.7263
same,DLH,[1],-1.2334
same,DLS/SDL/SID,[1],-0.8825
same,PD,[1],-0.6502
same,PEE,[1],-0.294
same,PVNF,[1],-0.8541
same,3-phosphoglycerate,[1],0.2769
same,ADP-D-glucose,[1],0.08672
same,ATP,[1],0.01278
same,CDP,[1],-0.4413
same,D-sedoheptulose-1/7-phosphate,[1],-0.5631
same,FAD,[1],-0.04154
same,GMP,[1],0.0758
same,NAD+,[1],-0.03841
same,NADP+,[1],0.1589
same,Octoluse Bisphosphate,[1],-0.09051
same,Pyroglutamic acid,[1],-0.4571
same,UDP-D-glucose,[1],-0.005349
same,UDP-D-glucuronate,[1],0.1448
same,UDP-N-acetyl-glucosamine,[1],-0.09963
same,UDP,[1],-0.5337
same,UMP,[1],-0.1391
same,UTP,[1],-0.1864
same,a-ketoglutarate,[1],-0.9521
same,citrate/isocitrate,[1],-0.8432
same,cytidine,[1],0.1554
same,dATP,[1],-0.04411
same,dGMP/AMP,[1],0.02273
same,fumarate,[1],-0.3633
same,glucose-1/6-phosphate,[1],-0.2644
same,glycerate,[1],-1.224
same,guanine,[1],-1.026
same,guanosine,[1],-2.158
same,hypoxanthine,[1],-0.00849
same,indole,[1],-0.09763
same,inosine,[1],-0.6039
same,2_3-Diphosphoglyceric acid,[1],-0.1372
same,4-phosphopantothenate,[1],-0.5707
same,6-phospho-D-gluconate,[1],-0.1735
same,FMN,[1],0.07582
same,IMP,[1],-0.3382
same,Pyrophosphate,[1],-0.02007
same,Sedoheptoluse bisphosphate,[1],-0.1834
same,cyclic-AMP,[1],-0.2741
same,glutathione disulfide,[1],-0.5227
same,lactate,[1],-1.008
same,myo-inositol,[1],-1.363
same,nicotinate,[1],-1.278
same,ornithine,[1],0.0513
same,phosphoenolpyruvate,[1],0.03081
same,pyruvate,[1],-1.488
same,ribose-phosphate,[1],-0.08015
same,sarcosine/alanine,[1],-0.6413
same,sn-glycerol-3-phosphate,[1],-0.02952
same,succinate/methylmalonic acid,[1],-0.4318
same,uridine,[1],-1.131
same,xanthosine,[1],-0.9126
same,EC50,[2],400 nM
COc1ccc2c(c1)OC(O)(C(F)(F)C(F)(F)F)CC2=O (stereo not drawn) [MMV007839],Acetyllysine,[1],-0.1495
same,N-acetyl-L-ornithine,[1],-0.3633
same,N-carbamoyl-L-aspartate,[1],-1.795
same,NADPH,[1],-0.4001
same,dAMP,[1],-1.537
same,dCMP,[1],-0.8612
same,dTDP,[1],-1.865
same,dTMP,[1],-1.855
same,dTTP,[1],-0.1915
same,dihydroorotate,[1],-1.4167
same,orotate,[1],-2.224
same,DLH,[1],-0.6186
same,DLS/SDL/SID,[1],-1.11
same,PD,[1],0.5838
same,PEE,[1],-0.1635
same,PVNF,[1],-0.3342
same,3-phosphoglycerate,[1],0.9102
same,ADP-D-glucose,[1],-0.2
same,ATP,[1],-0.07659
same,CDP,[1],-1.957
same,D-sedoheptulose-1/7-phosphate,[1],-0.1553
same,FAD,[1],-0.4884
same,GMP,[1],-0.7332
same,NAD+,[1],-0.1711
same,NADP+,[1],-0.2719
same,Octoluse Bisphosphate,[1],0.7306
same,Pyroglutamic acid,[1],0.1304
same,UDP-D-glucose,[1],-0.2042
same,UDP-D-glucuronate,[1],-0.2026
same,UDP-N-acetyl-glucosamine,[1],-0.2915
same,UDP,[1],-2.077
same,UMP,[1],-0.8849
same,UTP,[1],-0.5295
same,a-ketoglutarate,[1],-0.1816
same,citrate/isocitrate,[1],0.3799
same,cytidine,[1],0.004906
same,dATP,[1],-0.1041
same,dGMP/AMP,[1],-1.779
same,fumarate,[1],-0.2064
same,glucose-1/6-phosphate,[1],-0.5084
same,glycerate,[1],3.453
same,guanine,[1],-0.7539
same,guanosine,[1],-0.466
same,hypoxanthine,[1],0.3062
same,indole,[1],0.0845
same,inosine,[1],0.6443
same,2_3-Diphosphoglyceric acid,[1],0.2433
same,4-phosphopantothenate,[1],-0.5485
same,6-phospho-D-gluconate,[1],0.05032
same,FMN,[1],-0.6664
same,IMP,[1],-0.6059
same,Pyrophosphate,[1],0.1105
same,Sedoheptoluse bisphosphate,[1],0.5834
same,cyclic-AMP,[1],-1.0489
same,glutathione disulfide,[1],-0.5477
same,lactate,[1],0.3101
same,myo-inositol,[1],0.232
same,nicotinate,[1],0.1131
same,ornithine,[1],0.4692
same,phosphoenolpyruvate,[1],1.103
same,pyruvate,[1],2.0227
same,ribose-phosphate,[1],0.6152
same,sarcosine/alanine,[1],0.4418
same,sn-glycerol-3-phosphate,[1],0.2795
same,succinate/methylmalonic acid,[1],-0.36
same,uridine,[1],-0.244
same,xanthosine,[1],-0.1676
same,EC50,[2],283 nM
Cc1ccc(-c2cc3c(SCC(=O)Nc4cc(C(F)(F)F)ccc4Cl)nccn3n2)cc1 [MMV396680],Acetyllysine,[1],-0.4906
same,N-acetyl-L-ornithine,[1],-0.1465
same,N-carbamoyl-L-aspartate,[1],2.456
same,NADPH,[1],0.3651
same,dAMP,[1],-0.4552
same,dCMP,[1],-0.05341
same,dTDP,[1],-1.136
same,dTMP,[1],-1.083
same,dTTP,[1],-1.158
same,dihydroorotate,[1],3.543
same,orotate,[1],-0.9159
same,DLH,[1],-0.3949
same,DLS/SDL/SID,[1],-0.337
same,PD,[1],-0.05706
same,PEE,[1],-0.2567
same,PVNF,[1],-0.5778
same,3-phosphoglycerate,[1],-0.2595
same,ADP-D-glucose,[1],-0.2217
same,ATP,[1],-0.3128
same,CDP,[1],-0.9741
same,D-sedoheptulose-1/7-phosphate,[1],-0.1867
same,FAD,[1],0.01886
same,GMP,[1],0.2283
same,NAD+,[1],0.1566
same,NADP+,[1],-0.1345
same,Octoluse Bisphosphate,[1],-0.3002
same,Pyroglutamic acid,[1],-0.01833
same,UDP-D-glucose,[1],-0.08257
same,UDP-D-glucuronate,[1],-0.2581
same,UDP-N-acetyl-glucosamine,[1],-0.1134
same,UDP,[1],-1.014
same,UMP,[1],-0.7737
same,UTP,[1],-1.292
same,a-ketoglutarate,[1],-0.4564
same,citrate/isocitrate,[1],-0.8044
same,cytidine,[1],0.4371
same,dATP,[1],0.3628
same,dGMP/AMP,[1],-1.368
same,fumarate,[1],-0.8765
same,glucose-1/6-phosphate,[1],0.09137
same,glycerate,[1],-0.2491
same,guanine,[1],0.04089
same,guanosine,[1],-0.01605
same,hypoxanthine,[1],-0.1601
same,indole,[1],-0.003888
same,inosine,[1],-0.03937
same,2_3-Diphosphoglyceric acid,[1],-0.2285
same,4-phosphopantothenate,[1],-0.2363
same,6-phospho-D-gluconate,[1],0
same,FMN,[1],-0.1967
same,IMP,[1],-0.1897
same,Pyrophosphate,[1],0.5607
same,Sedoheptoluse bisphosphate,[1],-0.2656
same,cyclic-AMP,[1],-0.07723
same,glutathione disulfide,[1],-0.04075
same,lactate,[1],-0.4254
same,myo-inositol,[1],-0.7104
same,nicotinate,[1],-0.4764
same,ornithine,[1],-0.2162
same,phosphoenolpyruvate,[1],-0.2321
same,pyruvate,[1],-0.2774
same,ribose-phosphate,[1],-0.04672
same,sarcosine/alanine,[1],-0.2257
same,sn-glycerol-3-phosphate,[1],-0.3003
same,succinate/methylmalonic acid,[1],0.02717
same,uridine,[1],-0.7719
same,xanthosine,[1],-0.1274
same,EC50,[2],92.8 nM

# Reference: PMC4965013, “Open Source Drug Discovery with the Malaria Box Compound Collection for Neglected Diseases and Beyond” (PLoS Pathogens, 2016)
